Measured values published in ChEMBL document CHEMBL1914402, “Design, synthesis, and biological evaluation of 3,4-dihydroquinolin-2(1H)-one and 1,2,3,4-tetrahydroquinoline-based selective human neuronal nitric oxide synthase (nNOS) inhibitors” (J Med Chem, 2011).
Values belong to the compound of their own block, whether it stands above or below them.

How the values were obtained:
[1] = target: Nitric oxide synthase 1 (Homo sapiens, UniProt P29475); assay: Inhibition of human recombinant nNOS expressed in baculovirus infected Sf9 cells assessed as conversion of [3H]L-arginine to [3H]L-citrulline preincubated for 15 mins measured after 45 mins by liquid scintillation counting; type: cell-based
[2] = target: T1, Cytochrome P450 1A2 (Homo sapiens, UniProt P05177); assay: Inhibition of human CYP1A2; type: ADME
T1 sequence (P05177 whole entry): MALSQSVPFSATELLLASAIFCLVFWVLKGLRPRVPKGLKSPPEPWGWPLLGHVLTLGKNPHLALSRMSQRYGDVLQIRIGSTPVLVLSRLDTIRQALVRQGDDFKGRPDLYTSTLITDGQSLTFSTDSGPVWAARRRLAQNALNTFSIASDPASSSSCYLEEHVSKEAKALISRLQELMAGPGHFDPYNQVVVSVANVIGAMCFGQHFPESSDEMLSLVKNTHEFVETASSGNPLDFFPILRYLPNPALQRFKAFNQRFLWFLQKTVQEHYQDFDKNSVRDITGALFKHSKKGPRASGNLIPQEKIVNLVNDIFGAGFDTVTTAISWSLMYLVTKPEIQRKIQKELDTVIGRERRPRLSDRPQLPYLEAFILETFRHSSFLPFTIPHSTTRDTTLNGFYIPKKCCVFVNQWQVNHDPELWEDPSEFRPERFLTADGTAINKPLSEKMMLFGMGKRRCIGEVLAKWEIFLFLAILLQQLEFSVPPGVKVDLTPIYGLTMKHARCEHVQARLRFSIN

[3] = target: Cytochrome P450 2D6 (Homo sapiens, UniProt P10635); assay: Inhibition of human CYP2D6; type: ADME
[4] = target: Cytochrome P450 2C9 (Homo sapiens, UniProt P11712); assay: Inhibition of human CYP2C9; type: ADME
[5] = target: Cytochrome P450 2C19 (Homo sapiens, UniProt P33261); assay: Inhibition of human CYP2C19; type: ADME
[6] = target: Nitric oxide synthase, inducible (Homo sapiens, UniProt P35228); assay: Inhibition of human recombinant iNOS expressed in baculovirus infected Sf9 cells assessed as conversion of [3H]L-arginine to [3H]L-citrulline preincubated for 15 mins measured after 45 mins by liquid scintillation counting; type: cell-based
[7] = target: T2, Nitric oxide synthase 3 (Homo sapiens, UniProt P29474); assay: Inhibition of human recombinant eNOS expressed in baculovirus infected Sf9 cells assessed as conversion of [3H]L-arginine to [3H]L-citrulline preincubated for 15 mins measured after 45 mins by liquid scintillation counting; type: cell-based
T2 sequence (P29474 whole entry): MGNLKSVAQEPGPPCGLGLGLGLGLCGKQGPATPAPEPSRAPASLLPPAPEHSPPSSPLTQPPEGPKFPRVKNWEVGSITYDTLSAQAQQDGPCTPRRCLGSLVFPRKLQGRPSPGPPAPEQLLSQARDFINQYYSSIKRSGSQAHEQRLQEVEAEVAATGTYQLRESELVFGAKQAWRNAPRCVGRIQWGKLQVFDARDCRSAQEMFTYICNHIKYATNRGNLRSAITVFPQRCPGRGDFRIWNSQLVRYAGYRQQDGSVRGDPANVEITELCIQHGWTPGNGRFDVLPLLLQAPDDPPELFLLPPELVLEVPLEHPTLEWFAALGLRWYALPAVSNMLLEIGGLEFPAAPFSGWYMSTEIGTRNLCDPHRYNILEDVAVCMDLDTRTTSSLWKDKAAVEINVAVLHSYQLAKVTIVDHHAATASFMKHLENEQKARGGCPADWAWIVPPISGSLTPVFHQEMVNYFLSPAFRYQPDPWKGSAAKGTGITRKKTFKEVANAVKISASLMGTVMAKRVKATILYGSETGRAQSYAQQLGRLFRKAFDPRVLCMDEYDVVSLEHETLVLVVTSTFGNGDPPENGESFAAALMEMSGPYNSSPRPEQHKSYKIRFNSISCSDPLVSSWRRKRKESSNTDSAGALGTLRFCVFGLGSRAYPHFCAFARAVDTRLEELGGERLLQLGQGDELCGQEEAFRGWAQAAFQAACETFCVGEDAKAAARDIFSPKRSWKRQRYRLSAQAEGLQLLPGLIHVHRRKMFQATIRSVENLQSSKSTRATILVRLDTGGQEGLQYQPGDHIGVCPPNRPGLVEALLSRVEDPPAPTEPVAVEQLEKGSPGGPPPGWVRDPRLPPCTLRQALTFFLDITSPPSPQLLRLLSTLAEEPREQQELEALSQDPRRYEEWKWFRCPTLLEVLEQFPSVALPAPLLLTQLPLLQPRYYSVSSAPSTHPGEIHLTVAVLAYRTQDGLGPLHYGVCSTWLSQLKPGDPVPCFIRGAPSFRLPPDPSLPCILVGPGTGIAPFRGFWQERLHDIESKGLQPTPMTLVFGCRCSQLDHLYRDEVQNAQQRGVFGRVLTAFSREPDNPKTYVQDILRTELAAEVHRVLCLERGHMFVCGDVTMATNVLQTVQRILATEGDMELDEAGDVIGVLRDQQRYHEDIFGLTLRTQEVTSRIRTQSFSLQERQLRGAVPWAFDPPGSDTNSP

[8] = target: Cytochrome P450 3A4 (Homo sapiens, UniProt P08684); assay: Inhibition of human CYP3A4; type: ADME
Chain of Cytochrome P450 3A4 (P08684 whole entry): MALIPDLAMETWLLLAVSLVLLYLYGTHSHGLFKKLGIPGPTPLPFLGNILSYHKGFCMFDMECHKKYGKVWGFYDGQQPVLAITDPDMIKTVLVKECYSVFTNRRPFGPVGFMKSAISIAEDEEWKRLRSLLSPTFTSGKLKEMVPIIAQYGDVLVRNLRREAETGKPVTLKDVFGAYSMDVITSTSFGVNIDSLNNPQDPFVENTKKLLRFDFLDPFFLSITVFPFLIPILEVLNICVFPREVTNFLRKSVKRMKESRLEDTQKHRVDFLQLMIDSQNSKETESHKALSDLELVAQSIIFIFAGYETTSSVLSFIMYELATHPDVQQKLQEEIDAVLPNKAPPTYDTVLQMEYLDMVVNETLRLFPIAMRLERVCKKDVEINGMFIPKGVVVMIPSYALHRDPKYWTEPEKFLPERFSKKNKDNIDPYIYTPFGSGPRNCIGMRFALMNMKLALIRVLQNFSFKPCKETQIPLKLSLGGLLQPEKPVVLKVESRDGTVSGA

Chain of Nitric oxide synthase, inducible (P35228 whole entry): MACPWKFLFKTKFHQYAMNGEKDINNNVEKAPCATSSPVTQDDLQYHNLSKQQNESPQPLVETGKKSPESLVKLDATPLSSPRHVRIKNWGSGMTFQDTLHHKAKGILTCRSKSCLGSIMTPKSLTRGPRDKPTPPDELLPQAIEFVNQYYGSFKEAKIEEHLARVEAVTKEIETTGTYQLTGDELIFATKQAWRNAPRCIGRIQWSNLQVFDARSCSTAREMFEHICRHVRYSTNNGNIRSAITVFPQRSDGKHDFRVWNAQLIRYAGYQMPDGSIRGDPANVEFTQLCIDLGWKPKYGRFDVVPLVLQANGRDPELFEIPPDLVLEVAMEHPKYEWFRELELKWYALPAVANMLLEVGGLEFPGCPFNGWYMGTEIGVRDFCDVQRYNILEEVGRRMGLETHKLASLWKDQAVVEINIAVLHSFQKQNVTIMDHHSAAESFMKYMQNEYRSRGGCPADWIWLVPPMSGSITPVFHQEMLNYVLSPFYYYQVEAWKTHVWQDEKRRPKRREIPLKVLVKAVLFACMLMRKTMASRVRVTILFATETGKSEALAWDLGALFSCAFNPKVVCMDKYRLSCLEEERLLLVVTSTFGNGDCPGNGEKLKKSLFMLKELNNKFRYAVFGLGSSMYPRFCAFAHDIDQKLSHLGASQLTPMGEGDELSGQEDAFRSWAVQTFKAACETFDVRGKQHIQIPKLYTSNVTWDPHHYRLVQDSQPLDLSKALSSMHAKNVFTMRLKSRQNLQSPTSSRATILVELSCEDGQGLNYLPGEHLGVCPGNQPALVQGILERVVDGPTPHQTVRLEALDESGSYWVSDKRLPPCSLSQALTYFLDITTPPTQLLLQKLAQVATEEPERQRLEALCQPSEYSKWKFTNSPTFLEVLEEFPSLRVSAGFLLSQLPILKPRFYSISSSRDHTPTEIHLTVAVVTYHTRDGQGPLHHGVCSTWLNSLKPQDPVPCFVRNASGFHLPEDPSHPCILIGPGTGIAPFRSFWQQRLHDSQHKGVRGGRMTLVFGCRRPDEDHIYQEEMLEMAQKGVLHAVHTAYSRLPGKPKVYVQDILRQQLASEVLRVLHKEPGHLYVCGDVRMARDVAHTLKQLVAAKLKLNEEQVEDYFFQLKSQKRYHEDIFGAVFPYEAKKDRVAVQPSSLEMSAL
Chain of Cytochrome P450 2C19 (P33261 whole entry): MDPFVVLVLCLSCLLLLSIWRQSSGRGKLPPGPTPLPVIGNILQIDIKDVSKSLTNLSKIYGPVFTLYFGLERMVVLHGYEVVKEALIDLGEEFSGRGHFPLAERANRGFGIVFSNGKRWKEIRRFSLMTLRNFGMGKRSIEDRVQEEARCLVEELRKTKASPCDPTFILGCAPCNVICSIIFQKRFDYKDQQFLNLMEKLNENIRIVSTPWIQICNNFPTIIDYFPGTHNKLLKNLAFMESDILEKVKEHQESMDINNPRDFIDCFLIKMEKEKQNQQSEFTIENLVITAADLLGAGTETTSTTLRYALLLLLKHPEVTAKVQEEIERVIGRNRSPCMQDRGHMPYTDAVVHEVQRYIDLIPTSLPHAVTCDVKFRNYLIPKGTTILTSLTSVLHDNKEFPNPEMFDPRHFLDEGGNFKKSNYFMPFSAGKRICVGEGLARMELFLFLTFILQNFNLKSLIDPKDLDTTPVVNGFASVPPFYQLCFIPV
Chain of Nitric oxide synthase 1 (P29475 whole entry): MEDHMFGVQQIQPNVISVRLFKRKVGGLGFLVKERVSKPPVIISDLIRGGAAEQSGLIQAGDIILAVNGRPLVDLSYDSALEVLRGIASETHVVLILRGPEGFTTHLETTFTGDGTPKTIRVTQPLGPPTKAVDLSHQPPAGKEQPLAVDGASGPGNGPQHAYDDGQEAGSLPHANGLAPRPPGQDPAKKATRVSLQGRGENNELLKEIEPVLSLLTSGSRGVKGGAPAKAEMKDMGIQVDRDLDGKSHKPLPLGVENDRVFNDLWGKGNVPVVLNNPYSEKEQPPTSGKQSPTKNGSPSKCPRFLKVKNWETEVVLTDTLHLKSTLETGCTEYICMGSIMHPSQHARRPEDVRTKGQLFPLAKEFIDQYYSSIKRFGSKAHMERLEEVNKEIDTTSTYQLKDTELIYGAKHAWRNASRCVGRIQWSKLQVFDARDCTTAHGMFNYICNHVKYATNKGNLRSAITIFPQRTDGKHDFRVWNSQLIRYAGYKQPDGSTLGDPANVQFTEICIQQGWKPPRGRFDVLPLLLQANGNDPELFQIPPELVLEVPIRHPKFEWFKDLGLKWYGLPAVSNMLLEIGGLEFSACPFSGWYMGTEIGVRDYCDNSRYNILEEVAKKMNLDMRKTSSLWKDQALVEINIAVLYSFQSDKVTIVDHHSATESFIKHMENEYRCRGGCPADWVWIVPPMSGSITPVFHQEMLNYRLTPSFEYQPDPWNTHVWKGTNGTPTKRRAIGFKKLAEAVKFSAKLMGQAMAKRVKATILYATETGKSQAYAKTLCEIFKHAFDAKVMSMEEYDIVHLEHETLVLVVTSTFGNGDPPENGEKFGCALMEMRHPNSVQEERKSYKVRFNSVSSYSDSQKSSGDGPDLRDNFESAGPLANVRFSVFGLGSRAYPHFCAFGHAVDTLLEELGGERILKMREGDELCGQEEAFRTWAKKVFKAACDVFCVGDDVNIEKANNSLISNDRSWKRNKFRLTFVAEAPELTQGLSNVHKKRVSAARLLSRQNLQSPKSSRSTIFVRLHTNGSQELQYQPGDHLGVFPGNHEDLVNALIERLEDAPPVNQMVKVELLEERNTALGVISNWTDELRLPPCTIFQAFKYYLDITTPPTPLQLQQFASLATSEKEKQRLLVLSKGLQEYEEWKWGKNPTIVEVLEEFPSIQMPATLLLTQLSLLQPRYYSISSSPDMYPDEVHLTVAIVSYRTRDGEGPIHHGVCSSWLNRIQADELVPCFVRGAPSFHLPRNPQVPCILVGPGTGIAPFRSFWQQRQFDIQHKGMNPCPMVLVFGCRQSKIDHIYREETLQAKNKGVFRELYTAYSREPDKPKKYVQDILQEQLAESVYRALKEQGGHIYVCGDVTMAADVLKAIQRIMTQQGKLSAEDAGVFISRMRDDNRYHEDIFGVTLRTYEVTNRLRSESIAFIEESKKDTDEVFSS
Chain of Cytochrome P450 2C9 (P11712 whole entry): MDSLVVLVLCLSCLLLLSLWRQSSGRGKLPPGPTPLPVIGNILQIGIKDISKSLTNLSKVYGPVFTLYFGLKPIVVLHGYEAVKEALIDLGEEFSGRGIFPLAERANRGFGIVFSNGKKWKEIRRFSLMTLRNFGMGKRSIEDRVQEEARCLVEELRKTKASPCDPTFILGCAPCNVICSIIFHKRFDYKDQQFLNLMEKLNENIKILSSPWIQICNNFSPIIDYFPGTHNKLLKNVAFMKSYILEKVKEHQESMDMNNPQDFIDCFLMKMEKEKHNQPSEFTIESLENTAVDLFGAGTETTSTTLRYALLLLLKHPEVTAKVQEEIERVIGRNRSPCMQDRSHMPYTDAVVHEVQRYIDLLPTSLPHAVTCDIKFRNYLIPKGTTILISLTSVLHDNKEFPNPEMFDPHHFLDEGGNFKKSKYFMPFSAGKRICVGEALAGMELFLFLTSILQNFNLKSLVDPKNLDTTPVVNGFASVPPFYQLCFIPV
Chain of Cytochrome P450 2D6 (P10635 whole entry): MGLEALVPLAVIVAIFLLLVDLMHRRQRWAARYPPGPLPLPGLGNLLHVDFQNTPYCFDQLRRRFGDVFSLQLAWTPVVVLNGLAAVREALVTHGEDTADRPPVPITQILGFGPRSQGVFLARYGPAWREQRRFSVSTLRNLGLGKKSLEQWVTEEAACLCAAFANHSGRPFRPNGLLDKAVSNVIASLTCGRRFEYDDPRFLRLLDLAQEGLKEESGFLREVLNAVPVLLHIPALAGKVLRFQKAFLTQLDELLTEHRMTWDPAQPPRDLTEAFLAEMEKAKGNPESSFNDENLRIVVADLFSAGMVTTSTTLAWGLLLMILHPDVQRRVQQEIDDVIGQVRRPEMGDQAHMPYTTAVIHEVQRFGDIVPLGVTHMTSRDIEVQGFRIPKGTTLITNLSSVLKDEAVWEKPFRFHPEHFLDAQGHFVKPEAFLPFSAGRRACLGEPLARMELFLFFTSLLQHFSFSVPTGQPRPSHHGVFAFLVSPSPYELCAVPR

SMILES: N=C(Nc1ccc2c(c1)CCCN2C1CCNCC1)c1cccs1
IC50 [1]: 0.54 µM | IC50 [2]: > 100 µM | IC50 [3]: > 100 µM | IC50 [4]: > 100 µM | IC50 [5]: 47.1 µM | IC50 [6]: > 100 µM | IC50 [7]: 119 µM | IC50 [8]: > 100 µM

SMILES: N=C(Nc1ccc2c(c1)CCC(=O)N2CCN1CCCC1)c1cccs1
IC50 [1]: 0.16 µM | IC50 [6]: 11 µM

SMILES: CN(C)CCN1C(=O)CCc2cc(NC(=N)c3cccs3)cc(F)c21
IC50 [1]: 3.36 µM

SMILES: N=C(Nc1ccc2c(c1)CCC(=O)N2CCN1CCCCC1)c1cccs1
IC50 [6]: > 100 µM

SMILES: CN(C)CCN1C(=O)CCc2cc(NC(=N)c3cccs3)ccc21
IC50 [2]: > 100 µM | IC50 [3]: 12.2 µM | IC50 [4]: > 100 µM | IC50 [5]: > 100 µM | IC50 [6]: 35 µM | IC50 [8]: > 100 µM

SMILES: CN1CCCC1CCN1C(=O)CCc2cc(NC(=N)c3cccs3)ccc21 (racemic)
IC50 [1]: 1.05 µM | IC50 [6]: > 100 µM

SMILES: N=C(Nc1ccc2c(c1)CCC(=O)N2CCCN1CCCC1)c1cccs1
IC50 [1]: 1.22 µM | IC50 [6]: > 100 µM

Second part, the compound after the results:

IC50 [1]: 0.093 µM
SMILES: CN(C)CCN1CCCc2cc(NC(=N)c3cccs3)cc(F)c21

IC50 [1]: 0.086 µM | IC50 [7]: 9.5 µM
SMILES: N=C(Nc1ccc2c(c1)CCCN2CCCN1CCCC1)c1cccs1

IC50 [6]: 12 µM
SMILES: CCN(CC)CCN1C(=O)CCc2cc(NC(=N)c3cccs3)ccc21

IC50 [2]: > 100 µM | IC50 [3]: > 100 µM | IC50 [4]: > 100 µM | IC50 [5]: > 100 µM | IC50 [8]: > 100 µM
SMILES: CN(C)CCN1CCCc2cc(NC(=N)c3cccs3)ccc21

IC50 [1]: 0.82 µM | IC50 [7]: 42.7 µM
SMILES: CN1CCC(N2CCCc3cc(NC(=N)c4cccs4)ccc32)CC1

IC50 [1]: 0.26 µM | IC50 [6]: > 100 µM
SMILES: CCN(CC)CCN1CCCc2cc(NC(=N)c3cccs3)ccc21
